Data from patent publication US7119115B2, “Indazole or indole derivatives, and use thereof in human medicine and more particularly in oncology” (Aventis Pharma S.A., priority 2001, dated 2006).

Experiments:
[1] = target: T1, Tubulin (Sus scrofa, UniProt P02550+P02554); test: Evaluation of the inhibition of tubulin polymerization (turbidimetry at 350 nm); assay type: biochemical; conditions: concentration that inhibits the rate of polymerization by 50%; pig brain tubulin 10 μM
T1 construct: Tubulin is purified from pig brain according to published methods; from tissue; host or cells: pig brain
T1 sequence (P02550 whole entry): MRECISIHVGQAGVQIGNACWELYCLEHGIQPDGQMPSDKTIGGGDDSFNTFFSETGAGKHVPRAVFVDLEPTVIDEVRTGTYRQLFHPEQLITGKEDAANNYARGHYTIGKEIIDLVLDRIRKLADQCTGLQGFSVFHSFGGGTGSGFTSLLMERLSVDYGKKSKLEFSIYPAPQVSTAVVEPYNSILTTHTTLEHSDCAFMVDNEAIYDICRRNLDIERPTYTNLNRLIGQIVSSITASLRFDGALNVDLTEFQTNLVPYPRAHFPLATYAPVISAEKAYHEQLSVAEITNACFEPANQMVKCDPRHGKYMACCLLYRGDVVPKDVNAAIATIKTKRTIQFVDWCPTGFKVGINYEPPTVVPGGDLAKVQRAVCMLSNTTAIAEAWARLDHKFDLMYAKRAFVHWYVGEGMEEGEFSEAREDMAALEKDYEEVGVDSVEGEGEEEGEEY
T1 sequence (P02554 whole entry): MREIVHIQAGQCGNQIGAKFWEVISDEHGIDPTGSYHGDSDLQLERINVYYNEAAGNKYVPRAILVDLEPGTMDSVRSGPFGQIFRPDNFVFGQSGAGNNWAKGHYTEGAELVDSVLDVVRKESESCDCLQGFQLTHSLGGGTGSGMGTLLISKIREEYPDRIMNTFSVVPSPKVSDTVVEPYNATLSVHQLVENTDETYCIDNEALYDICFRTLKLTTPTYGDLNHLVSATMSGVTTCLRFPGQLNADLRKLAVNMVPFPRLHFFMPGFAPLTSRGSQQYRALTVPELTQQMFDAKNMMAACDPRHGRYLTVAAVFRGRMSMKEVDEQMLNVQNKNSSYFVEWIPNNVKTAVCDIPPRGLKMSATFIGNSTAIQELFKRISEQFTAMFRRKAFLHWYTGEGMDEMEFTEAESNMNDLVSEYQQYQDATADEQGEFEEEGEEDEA
Experimental: Briefly, the brains are ground and centrifuged in an extraction buffer. The tubulin contained in the supernatant of the extract undergoes two successive cycles of polymerization at 37° C. and depolymerization at 4° C., before being separated from the MAPs (Microtubule Associated Proteins) by chromatography on a phosphocellulose P11 column (Whatman). […] It is stored in a buffer known as RB/2 30% glycerol, the composition of which is 50 mM MES-NaOH [2-(N-morpholino)ethanesulphonic acid], pH 6.8; 0.25 mM MgCl2; 0.5 mM EGTA; 30% glycerol (v/v), 0.2 mM GTP (guanosine-5′-triphosphate).
The polymerization of tubulin to microtubules is monitored by turbidimetry as follows: the tubulin is adjusted to a concentration of 10 μM (1 mg/ml) in RB/2 30% glycerol buffer to which 1 mM GTP and 6 mM MgCl2 are added. […] The increase in the turbidity of the solution is monitored at 350 nm.
The products are dissolved at 10 mM in DMSO and added at variable concentrations (0.5 to 10 μM) to the tubulin solution before polymerization.

[2] = tested on: HDMEC cells (Human Dermal Microvascular Endothelial Cells); test: Detachment of endothelial cells in vitro (test for determining the inhibition of vascularization); assay type: cell-based; conditions: two hours of treatment, relative to control (untreated cells); for inhibition at 1 µM: Homo sapiens, Endothelial cell, 2 h
Text: A test for determining the detachment of the endothelial cells was developed in order to select the products with regard to their “in vitro” activity. This test for determining the detachment of endothelial cells is characterized in that the endothelial cells, inoculated into plates whose bottom is covered with a binder preferably chosen from gelatin, fibronectin and vitronectin, after culturing, are supplemented with a medium containing the test compound, and the cells are then labelled with a fluorescent substance, the cells which have become detached are removed by washing and the fluorescence of the remaining cells is counted in a fluorimeter.
This test consists in measuring the detachment of endothelial cells cultured on substrata based on a binder preferably chosen from fibronectin, vitronectin and gelatin. Preferably, a day after the inoculation of the cells in plates containing, for example, 96 wells, the culture medium is replaced with a medium containing the test compound in the absence of serum. The same preparation is prepared six times at three different concentrations ([…]) and the control six times without addition of antivascular product. After two hours of treatment with the test substance, the cells are labelled with calcein-AM (1.6 μg/ml) in culture medium supplemented with 0.1% BSA. The cells that have become detached are removed by washing with the culture medium containing 0.1% bovine serum albumin; 100 μl of medium are added to each well. The fluorescence of the remaining cells is counted in a fluorimeter. The data obtained are expressed relative to the control (untreated cells).
The evaluation of the detachment of the endothelial cells in vitro is determined in the following manner. HDMEC cells (Human Dermal Microvascular Endothelial Cells, Promocell, c-122102) are cultured in an ECGM-MV medium that contains 5% foetal calf serum, growth factors (EGF 10 ng/ml, hydrocortisone 1 μg/ml, 0.4% growth supplement with heparin) and antibiotics (amphotericin 50 ng/ml, gentamycin 50 μg/ml). For the detachment test, the HDMECs are inoculated at a rate of 5 000 cells in clear-bottomed 96-well plates (Costar) precoated with fibronectin (10 μg/ml), vitronectin (1 μg/ml) or gelatin. Twenty-four hours later, the culture medium is replaced with ECGM-MV 0.1% BSA medium containing the products indicated. The concentrations tested are 0.1–0.3 and 1 μM for each product. After two hours of treatment, the cells are labelled for one hour with calcein (1.6 μg/ml, Molecular Probes) in ECGM-MV 0.1% BSA medium. The detached cells are then removed by washing with ECGM-MV 0.1% BSA medium; 100 μl of medium is added to each well. The fluorescence of the cells that remain attached to the substratum of the well is counted using a fluorimeter, Spectrafluor Plus (Tecan excitation 485 nm, and emission 535 nm). The data are the mean of six different samples and are expressed as the percentage of the control (untreated cells).
A cell detachment effect of greater than or equal to 15% is considered as significant.

| Compound | IC50 [1] | melting point | inhibition at 1 µM [2] | % detachment 1 μM [2] |
| --- | --- | --- | --- | --- |
| CON=Cc1n[nH]c2c1C=CC(c1ccccc1)(c1ccccc1)C2 (mixture of isomers) [Example 6-4, 6,6-diphenyl-6,7-dihydro-1H-indazole-3-carbaldehyde O-methyloxime] | 6000 nM | 184 °C | – | – |
| ON=C(c1n[nH]c2c1C=CC(c1ccccc1)(c1ccccc1)C2)C1CC1 (single isomer, unassigned) [Example 6-1A, cyclopropyl(6,6-diphenyl-6,7-dihydro-1H-indazol-3-yl)methanone oxime] | 600 nM | – | 34% | – |
| CCOC(=O)c1[nH]nc2c1C=CC(c1ccccc1)(c1ccccc1)C2 [Example 1, Ethyl 6,6-diphenyl-6,7-dihydro-2H-indazole-3-carboxylate] | 1500 nM | – | 20% | – |
| O=C(NC1CC1)c1n[nH]c2c1C=CC(c1ccccc1)(c1ccccc1)C2 [Example 3-1, N-(cyclopropyl)-6,6-diphenyl-6,7-dihydro-1H-indazole-3-carboxamide] | 2500 nM | – | 20% | – |
| O=C(c1n[nH]c2c1C=CC(c1ccccc1)(c1ccccc1)C2)N1CCC1 [Example 3-2, Azetidin-1-yl(6,6-diphenyl-6,7-dihydro-1H-indazol-3-yl)methanone] | 4500 nM | 285 °C | – | – |
| O=C(c1n[nH]c2c1C=CC(c1ccccc1)(c1ccccc1)C2)C1CC1 [Example 5-1, Cyclopropyl(6,6-diphenyl-6,7-dihydro-1H-indazol-3-yl)methanone] | 800 nM | – | 29% | – |
| ON=C(c1n[nH]c2c1C=CC(c1ccccc1)(c1ccccc1)C2)C1CCC1 [Example 6-2A, cyclobutyl(6,6-diphenyl-6,7-dihydro-1H-indazol-3-yl)methanone oxime] | 1000 nM | – | 18% | – |
| CON=C(c1[nH]nc2c1C=CC(c1ccccc1)(c1ccccc1)C2)C1CC1 [Example 6-3A, cyclopropyl(6,6-diphenyl-6,7-dihydro-2H-indazol-3-yl)methanone O-methyloxime] | 800 nM | – | 26% | – |
| C=CCO/N=C(\c1n[nH]c2c1C=CC(c1ccccc1)(c1ccccc1)C2)C1CC1 [Example 6-6A, cyclopropyl(6,6-diphenyl-6,7-dihydro-1H-indazol-3-yl)methanone O-allyloxime] | 1000 nM | – | 17% | – |
| C=CC(=O)n1nc(N)c2c1CC(c1ccccc1)(c1ccccc1)C=C2 [Example 7-2, 1-(3-Amino-6,6-diphenyl-6,7-dihydroindazol-1-yl)propenone] | 5000 nM | – | 25% | – |
| O=C(Nc1n[nH]c2c1C=CC(c1ccccc1)(c1ccccc1)C2)c1ccccc1 [Example 7-4, N-[6,6-Diphenyl-6,7-dihydro-1H-indazol-3-yl]benzamide] | 6000 nM | – | 18% | – |
| Cc1noc(-c2n[nH]c3c2C=CC(c2ccccc2)(c2ccccc2)C3)n1 [Example 8-1, 3-(3-Methyl[1,2,4]oxadiazol-5-yl)-6,6-diphenyl-6,7-dihydro-1H-indazole] | 9000 nM | – | 24% | – |
| O=C(c1n[nH]c2c1C=CC(c1ccc(F)cc1)(c1ccc(F)cc1)C2)C1CC1 [Example 10-7, Cyclopropyl[6,6-bis(4-fluorophenyl)-6,7-dihydro-1H-indazol-3-yl]methanone] | 1000 nM | – | 24% | – |
| (R,S)-cyclopropyl[6-(4-fluorophenyl)-6-phenyl-6,7-dihydro-1H-indazol-3-yl]methanone [Example 10-4A] | 1000 nM | – | – | 33% |

More lines, in order of falling IC50 [1], values ahead:

| IC50 [1] | melting point | Compound | inhibition at 1 µM [2] | % detachment 1 μM [2] |
| --- | --- | --- | --- | --- |
| 2000 nM | – | CCOC(=O)c1c[nH]c2c1C=CC(c1ccccc1)(c1ccccc1)C2 [Example 12, Ethyl 6,6-diphenyl-6,7-dihydro-1H-indole-3-carboxylate] | 17% | – |
| 1500 nM | – | O/N=C(\c1n[nH]c2c1C=CC(c1ccc(F)cc1)(c1ccc(F)cc1)C2)C1CC1 [Example 10-8A, cyclopropyl[6,6-bis(4-fluorophenyl)-6,7-dihydro-1H-indazol-3-yl]methanone oxime] | 17% | – |
| 1200 nM | – | CCOC(=O)c1n[nH]c2c1C=CC(c1ccccc1)(c1ccc(F)cc1)C2 (racemic) [Example 10-3A, ethyl (R,S)-6-(4-fluorophenyl)-6-phenyl-6,7-dihydro-1H-indazole-3-carboxylate] | 16% | – |
| 1100 nM | – | O=C(c1n[nH]c2c1C=CC(c1ccccc1)(c1ccccc1)C2)C1CCC1 [Example 5-2, Cyclobutyl(6,6-diphenyl-6,7-dihydro-1H-indazol-3-yl)methanone] | 19% | – |
| 1000 nM | – | CCOC(=O)c1n[nH]c2c1C=CC(c1ccccc1)(c1ccc(F)cc1)C2 (single isomer, unassigned) [Example 10-3B, ethyl 6-(4-fluorophenyl)-6-phenyl-6,7-dihydro-1H-indazole-3-carboxylate] | 19% | – |
| 1000 nM | – | ON=C(c1n[nH]c2c1C=CC(c1ccccc1)(c1ccc(F)cc1)C2)C1CC1 (single isomer, unassigned) [Example 10-5A] | 25% | – |
